# Assay results reported in US7544476B1, “Identifying cancers sensitive to treatment with inhibitors of notch signaling” (AVEO Pharmaceuticals, Inc., priority 2008, dated 2009).
# Tests used:
# [1] = tested on: LS-1034 colon cancer cell line; assay: Notch target gene expression by qRT-PCR after treatment with gamma-secretase inhibitor; type: cell-based, human
# Description: (§1) Cells were seeded into 6-well plates in 2 mL of media. Replicates wells of cells treated with 1 μM, 3 μM, and 6 μM Gamma Secretase Inhibitor (GSI; Sigma L-685,458) or DMSO (Sigma D2650) (vehicle control) immediately after seeding. Cells were incubated at 37° C. 5% CO2 for 20 hours after treatment, then collected, rinsed with PBS (Invitrogen 14040-133), and cell pellets were frozen on dry ice and stored at −80° C. Subsequently, RNA was prepared by hand using the Qiagen RNeasy™ miniprep columns (Qiagen GR8RNA) and qRT-PCR performed to analyze Notch target gene expression according to standard protocol (Qiagen Quantitect SYBR GREEN RT-PCR kit 204245). Quantitative RT-PCR was run on Applied Biosystems 7900HT Sequence Detection System. Results were analyzed using the comparative Ct method. Beta Actin was used as the housekeeping gene and Stratagene Universal Human Reference RNA (Stratagene Cat. No. 740000) was used as an external reference sample to determine the level of expression of the Notch target genes Hes1, Hes5, Hes6, Hes7, Hey1, Hey2, HeyL, and Helt.
# [2] = tested on: HT-29 colon cancer cell line; assay: as above; type: cell-based, human
# Description: as §1
# [3] = tested on: mouse tumors with enhanced expression of Notch1 caused by Mo-MuLV integration near the Notch1 locus; assay: Cell viability assay on disaggregated retroviral-induced tumors treated with GSI; type: cell-based
# Description: To perform the analyses on the retroviral-induced tumors, tumor-bearing animals were euthanized, tumors were collected and 0.2 g pieces were disaggregated using 4 mg/ml collagenase in RPMI media for 2 hours at 37° C. Cells were further disaggregated by passage through an 18 G needle 5-10 times. Single cells in suspension were aspirated in the supernatant for further analysis.
# (§2) For cell viability assays, single cells were re-seeded at 100,000 cell per well in 12-well plates in RPMI media supplemented with 10% FBS, 1% PenStrep, and 0.01 μM Beta estradiol. Cells were then treated for 48 hours with 1, 3 or 10 μM GSI (Sigma L-685,458) or vehicle control. Cell viability and apoptosis were assessed using Guava PCA-96 Viacount Flex reagent (Cat. No. 4700-0060) and measured using a Guava PCA-96 instrument, according to manufacturer's protocol. To measure mRNA expression levels, fresh tumor samples were collected, RNA was prepared using standard protocols, and microarray gene expression profile analysis was performed using Agilent cDNA microarray chips according to manufacturer's recommended protocols. Relative expression of HeyL and other genes was calculated by comparison to a universal mouse reference RNA sample from Stratagene (Universal Mouse Reference RNA Cat. No. 740100). […]
# [4] = tested on: mouse tumors that did not exhibit elevated Notch1 expression; assay: as above; type: cell-based; settings: mouse tumors without elevated Notch1 expression
# Description: as §2, with “To perform the analyses on the retroviral-induced tumors, tumor-bearing animals were euthanized, tumors were collected and 0.2 g pieces were disaggregated using 4 mg/ml collagenase in RPMI media for 2 hours at 37° C. Cells were further disaggregated by passage through an 18 G needle 5-10 times. Single cells in suspension were aspirated in the supernatant for further analysis. For” for “For”
smiles,measurement,setting,value
CC(C)C[C@H](NC(=O)[C@H](Cc1ccccc1)C[C@@H](O)[C@H](Cc1ccccc1)NC(=O)OC(C)(C)C)C(=O)N[C@@H](Cc1ccccc1)C(N)=O [GSI],expression of Notch target genes,[1],decreases expression of Notch target genes
same,expression of Notch target genes,[2],decreases expression of Notch target genes
same,sensitivity of tumor growth to inhibition by GSI,[3],sensitivity to inhibition
same,sensitivity of tumor growth to inhibition by GSI,[4],not sensitive
